Experimental data: the supplement of paper PMC10307832

Columns and labels:
AZD5582 = compound: C[C@@H](C(=O)N[C@@H](C1CCCCC1)C(=O)N2CCC[C@H]2C(=O)N[C@@H]3[C@@H](CC4=CC=CC=C34)OCC#CC#CCO[C@@H]5CC6=CC=CC=C6[C@@H]5NC(=O)[C@@H]7CCCN7C(=O)[C@H](C8CCCCC8)NC(=O)[C@H](C)NC)NC [AZD5582]; assay: relative viability (nuclei count vs DMSO), 5 days (fraction); higher = more cells survive
Method in brief: (§1)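 Viability was read as treated-well nuclei divided by vehicle-well nuclei, using the median across plates. Lung cancer cell lines in 1536-well plates were kept overnight at 37 °C, pinned with five √10-spaced library-drug doses, and after 5 days were Hoechst-stained, imaged at 4× and counted in MetaXpress. Plates passed only with control CV below 25% and at least one doubling.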

Temozolomide = compound: Cn1nnc2c(C(N)=O)ncn2c1=O [Temozolomide]; assay: as above
Method in brief: as §1

Row | Cell Line | relative viability (AZD5582; 0.001581 µM) | relative viability (AZD5582; 0.01581 µM) | relative viability (AZD5582; 0.05 µM) | relative viability (Temozolomide; 0.2 µM) | relative viability (Temozolomide; 0.6325 µM) | relative viability (Temozolomide; 2 µM) | relative viability (Temozolomide; 6.325 µM) | relative viability (Temozolomide; 20 µM) | relative viability (AZD5582; 0.005 µM)
1 | NCI-H596 | 0.84 | 0.999 | 0.358 | 0.932 | 0.953 | 1.01 | 0.925 | 0.959 | 
2 | NCI-H647 | 0.904 | 0.865 | 0.957 | 1 | 1.01 | 0.906 | 0.684 | 0.265 | 0.971
3 | NCI-H650 | 0.842 | 0.542 | 0.564 | 1.01 | 0.975 | 1.02 | 0.974 | 0.913 | 0.982
4 | NCI-H661 | 0.984 | 0.984 | 1.07 | 0.993 | 0.935 | 1.04 | 0.947 | 0.843 | 1
5 | NCI-H727 | 1.02 | 0.858 | 0.979 | 0.83 | 0.923 | 1.13 | 0.798 | 0.805 | 1.01
6 | NCI-H838 | 0.895 | 0.785 | 0.975 | 0.948 | 1.02 | 1.02 | 0.928 | 0.986 | 1.09
7 | NCI-H1299 | 1 | 1 | 0.991 | 1.03 | 1.04 | 1.07 | 1.03 | 1.03 | 1.02
8 | NCI-H1355 | 0.902 | 0.771 | 0.823 | 1.01 | 0.985 | 1.06 | 0.947 | 0.982 | 1.01
9 | NCI-H1395 | 0.866 |  | 0.988 | 1 | 0.96 | 0.906 | 0.745 | 0.867 | 1
10 | NCI-H1437 | 0.915 | 0.979 | 0.983 | 0.998 | 1.01 | 0.997 | 1.04 | 1.02 | 1
11 | NCI-H1563 | 0.957 | 0.836 | 1.07 | 0.903 | 0.937 | 0.999 | 0.99 | 0.993 | 0.936
12 | NCI-H1623 | 1.03 | 0.995 | 0.95 |  | 1.18 | 1.04 | 0.979 | 0.66 | 1.08
13 | NCI-H1648 | 0.607 | 0.554 | 0.824 |  | 0.889 | 0.903 | 0.746 | 0.893 | 0.894
14 | NCI-H1650 | 0.87 | 0.899 | 0.759 | 0.955 | 0.938 | 0.933 | 0.952 | 0.773 | 1.05
15 | NCI-H1651 | 0.932 | 0.952 | 1.13 | 0.983 | 0.997 | 0.984 | 0.997 | 0.993 | 1.01
16 | NCI-H1666 | 0.886 | 0.971 | 0.94 | 0.92 | 0.994 | 0.906 | 0.751 | 0.76 | 0.953
17 | NCI-H1734 | 0.968 | 1.03 | 1.23 | 1.12 | 1.05 | 1.06 | 0.932 | 0.976 | 1.11
18 | NCI-H1755 | 0.939 | 0.946 | 1.05 | 1.08 | 0.971 | 1.04 | 0.965 | 0.818 | 0.99
19 | NCI-H1792 | 0.754 | 0.712 | 1.21 | 1.22 | 1.02 | 1.07 | 0.854 | 1.07 | 0.971

Row | Cell Line | relative viability (AZD5582; 0.001581 µM) | relative viability (AZD5582; 0.01581 µM) | relative viability (AZD5582; 0.05 µM) | relative viability (Temozolomide; 0.2 µM) | relative viability (Temozolomide; 0.6325 µM) | relative viability (Temozolomide; 2 µM) | relative viability (Temozolomide; 6.325 µM) | relative viability (Temozolomide; 20 µM) | relative viability (AZD5582; 0.005 µM)
20 | NCI-H1793 | 0.897 | 0.822 | 0.797 |  | 0.919 | 0.918 | 0.87 | 0.636 | 1.05
21 | NCI-H1915 | 0.899 | 0.805 | 0.947 | 1.09 | 0.987 | 0.946 | 0.602 | 0.386 | 1
22 | NCI-H1944 | 0.867 | 0.921 | 1.01 | 0.946 | 0.959 | 1.04 | 0.919 | 0.816 | 1.04
23 | NCI-H1975 | 1 | 0.944 | 1.2 | 1.01 | 1.01 | 1.09 | 0.919 | 0.957 | 1.13
24 | NCI-H1993 | 0.758 | 0.957 | 1 | 0.866 | 0.968 | 0.953 | 0.944 | 0.758 | 1.1
25 | NCI-H2009 | 0.916 | 0.943 | 0.988 | 1.05 | 1.01 | 1.05 | 0.923 | 1.06 | 1.09
26 | NCI-H2023 | 0.842 | 0.84 | 0.934 | 0.979 | 0.943 | 1.01 | 0.984 | 0.941 | 0.962
27 | NCI-H2085 | 1.05 | 0.998 | 0.993 | 1 | 1.02 | 1.02 | 0.964 | 0.949 | 1.08
28 | NCI-H2087 | 0.98 | 0.982 | 1.03 | 1.31 | 1.12 | 1.07 | 0.937 | 1.01 | 1.12
29 | NCI-H2126 | 0.93 | 0.808 | 0.901 | 0.957 | 1.03 | 1.05 | 0.98 | 1.03 | 1.04
30 | NCI-H2170 | 0.956 | 0.987 | 0.989 |  | 1.06 | 1 | 0.858 | 0.582 | 0.985
31 | NCI-H2228 | 1.01 | 0.942 | 0.538 | 1.19 | 0.928 | 1.15 | 0.881 | 1.05 | 1.05
32 | NCI-H2342 | 0.938 | 0.917 | 1.07 | 0.827 | 0.991 | 1.06 | 1.03 | 0.912 | 1.01
33 | NCI-H2347 | 0.956 | 0.919 | 0.979 | 1.06 | 1.16 | 1.08 | 0.979 | 0.976 | 1.03
34 | NCI-H2405 | 1 | 0.957 | 1.02 | 1.05 | 1 | 1.06 | 0.935 | 0.978 | 1.12
35 | NCI-H3122 | 0.938 | 1 | 0.265 | 1.02 | 1.03 | 1.06 | 0.945 | 0.97 | 1.02
36 | PC-3 [JPC-3] | 0.885 | 0.9 | 0.531 | 0.954 | 1.08 | 1.09 | 1.06 | 0.451 | 0.898
37 | PC-14 | 0.859 | 0.926 | 0.932 | 1.07 | 1.03 | 0.994 | 0.944 | 0.529 | 1.03
